One assay relates to HCT116 cells. Kind of assay: Mitotic arrest assay on HCT116 cells (phospho-histone H3 Ser10). In kind it is cell-based, human. Particulars: lowest active dose; for minimal effective concentration: Homo sapiens, HCT-116, HCT116 cells, read-out: Mitotic arrest HCT116 LAD (converted). The text has this:
Phosphorylation of histone H3 is tightly correlated with chromosome condensation during both mitosis and meiosis. The assay is a cellular immunosorbent assay wherein the sole antibody is labelled with a detectable conjugate. The phospho-histone H3 (ser10) antibody detects endogenous levels of histone H3 only when phosphorylated at serine 10. […] In parallel with antibody detection, the nuclei of the cells are stained with Hoechst 33342 for cell-counting. Cells are detected and analysed using the InCell Analyzer 1000 from GE Healthcare. Since both the antibody-detection as well as the Hoechst-staining are in the nucleus, the dual area object intensity algorithm is used for analysing the wells.
All compounds tested were dissolved in DMSO and further dilutions were made in culture medium. Final DMSO concentrations never exceeded 0.1% (v/v).
HCT116 cells (supplier: ATCC) (human colon carcinoma cell line) were cultivated in Mc Coy's 5 A medium (supplier: Gibco) supplemented with 10% foetal calf serum (FCS), 2 mM L-glutamine and gentamycin at 37° C. in a humidified incubator with 5% CO2.
HCT116 cells were seeded at 20.000 cells per well in a 96 well plate (black/clear bottom, poly-D-lysine coated, supplier Greiner), cultured overnight to adhere to the bottom of the plate and treated with compound for 6 hours at 37° C. in a humidified incubator. After incubation, the medium was removed and cells were fixed using 100 μl/well formaldehyde (Accustain®, Formaline solution 10% neutral buffered, contains 4% formaldehyde w/v, supplier: Sigma) was added. After incubation for 15 minutes at room temperature, the formaldehyde was removed and cells were incubated with methanol (−20° C.) for 15 minutes at room temperature. After incubation, cells were washed once with phosphate-buffered saline (PBS —CaCl2, —MgCl2, suppier: Gibco)/0.05% Tween 20. The anti-phospho-histone H3 (Ser10) Alexa Fluor 488 antibody (supplier: Cell signalling) is used for detection of the cells inmitosis. The antibody was diluted 1/50 in 5% bovine serum albumins (BSA) and 50 μl/well was used for incubation overnight at room temperature in the dark.
A 1/2000 dilution of Hoechtst 33342 (10 mg/ml, supplier: Invitrogen) was made and 100 μl/well was added for at least 30 minutes before acquiring images. The absorbance at dual wavelengths of 360/480 nm was measured using the InCell Analyzer 1000 from GE Healthcare and the results were then analyzed.
For each experiment, controls (containing no drug) and a blank incubation (containing no cells or drugs) were run in parallel. Analysis was done in triplicate. Low cell count wells were invalidated. The blank value was subtracted from all control and sample values and divided by the standard deviation of the measurements. The compounds were considered active when the obtained value (sigma) was >5. Herein the effects of test compounds are expressed as the lowest dose giving a sigma value of >5 (LAD) (see table F-2).

Another assay deals with PC-3 cells. As to the kind of experiment: Antiproliferative activity, Alamar Blue assay, PC-3 cells. In kind it is cell-based, human. Particulars: Homo sapiens, PC-3, PC3 cells; read-out: PC3 antiproliferative activity pIC50 (converted). Summed up:
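PC-3 cells seeded at 4.5×10^3 cells/ml, left to adhere 24 hr, then exposed to compound for 4 days. Resazurin (Alamar Blue) added for a further 24 hrs at 37° C; fluorescence read at 540/590 nm. Viability as % of untreated control, mean of 3 wells; IC50 by probit analysis, reported as pIC50.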
Background: The colour change of resazurin is a common sign of viable cells or microbes.

Bounds are passed on as bounds.

Regarding `CCc1cc2ccc(C(C)(C#N)CCOc3ccc4oc(C)c(C)c4c3)cc2[nH]c1=O` (stereo not shown) [Compound 162], the minimal effective concentration in the assay with HCT116 cells is 3.16 µM. Besides, the IC50 in the assay with PC-3 cells is more than 10 µM.
For `CCc1cc2ccc(C(C)(C#N)CCOc3cccc4c3OCCO4)cc2[nH]c1=O` (stereo not shown) [Compound 163] the same measures were 1 µM and 1 µM.
`CCc1cc2ccc(C(C)(C#N)Cc3cccc(CCC#N)c3)cc2[nH]c1=O` (stereo not shown) [Compound 165] gave a Mitotic arrest HCT116 LAD in the assay with HCT116 cells (HCT116 cells, the values are: pLAD (−log M lowest active dose)) of 6.5. The IC50 with PC-3 cells was 1 µM.
Take `CCc1cc2ccc(C(C#N)(CCOc3ccccc3)C3CC3)cc2[nH]c1=O` (stereo not shown) [Compound 166]: the minimal effective concentration in the assay with HCT116 cells was 1 µM. For the same molecule, the IC50 in the assay with PC-3 cells was 7.94 µM.
The corresponding values for `CCc1cc2ccc(C(C)(C#N)CCOc3ccc(C(C)(C)C)cc3)cc2[nH]c1=O` (stereo not shown) [Compound 167] are 1 µM and 7.94 µM.

Values taken from patent US8778966B2, “Quinolinone derivatives as PARP and tank inhibitors” (Janssen Pharmaceutica, NV, priority 2007, dated 2014).
